Experimental data reported in patent US20220323445A1, “REDUCING IMMUNOGENICITY TO PEGLOTICASE” (Horizon Therapeutics Ireland DAC, priority 2020, published 2022).
Where two headings read alike, the source gives them in different places.

Tests used:
[1] = test system: patients with uncontrolled gout
Source text: As used herein, an “adverse event” or “AE” refers to any untoward medical occurrence associated with the use of a drug in humans, whether it is considered drug-related or not. An AE or suspected adverse reaction is considered a “serious adverse event” or “SAE” if, in the view of either the Investigator or Sponsor, it results in any of the following outcomes: (1) Death, (2) Life-threatening: an AE is considered “life-threatening” if, in the view of either the Investigator or Sponsor, its occurrence places the subject or subject at immediate risk of death. […] (5) A congenital anomaly/birth defect; (6) Important medical events that may not result in death, be life-threatening, or require hospitalization may be considered serious when, based upon appropriate medical judgment, they may jeopardize the patient or subject and may require medical or surgical intervention to prevent one of the outcomes listed in this definition.
Safety Variables: Safety was assessed via AE and concomitant medication use monitoring, physical examinations, vital signs, clinical safety laboratory evaluations (hematology, chemistry, urine uric acid:creatinine ratio), pregnancy testing (if applicable), electrocardiograms (ECGs), and AEs of special interest (i.e., IRs, anaphylaxis, gout flares, and cardiovascular events).
AEs of special interest may include IRs, anaphylaxis, gout flares, and cardiovascular events.
Severity in accordance with the disclosure is reported according to the following: Grade 1 (Mild)—No interference with daily activity. Grade 2 (Moderate)—Some interference with daily activity but medical intervention not required (e.g., doctor visit and/or medication); over the counter medicine permitted. Grade 3 (Severe)—Prevents daily activity and requires medical intervention (e.g., doctor visit and/or medication). Grade 4 (Potentially Life-threatening)—Emergency room visit or hospitalization.
An AE was defined as any untoward event, whether or not it was considered related to the use of pegloticase or MTX. Any worsening (i.e., any clinically significant adverse change in frequency or intensity) of a preexisting condition which was temporally associated with the use of pegloticase or MTX was also considered an AE. Abnormal laboratory values or test results constitute AEs only if they induce clinical signs or symptoms or require therapy, and were recorded on the AE CRF under the signs, symptoms or were associated with diagnoses associated with them. Screening conditions were not considered AE; however, worsening of a preexisting condition may be considered an AE. AEs were collected starting at the baseline, Visit 1.
TEAEs during the Pegloticase+IMM Period were defined as events that occur after the start of the first pegloticase infusion through 30 days after the last dose of pegloticase and/or MTX or placebo for MTX (whichever was later). TEAEs that occur during the MTX Tolerability Assessment Period prior to randomization (Weeks −6 to −4) was summarized separately for the MTX population. […] AEs that occur more than 30 days after the last dose of pegloticase and/or MTX or placebo for MTX through the 6-month follow-up visit was also summarized.

plasma urate = settings: doses of 4 to 12 mg; within 24 to 72 hours; from 11.1±0.6 mg/dL; cited from earlier work

## CN(Cc1cnc2nc(N)nc(N)c2n1)c1ccc(C(=O)N[C@@H](CCC(=O)O)C(=O)O)cc1 [MTX, methotrexate]
[1]
  Infections And Infestations, %: (13.3) %
  Infections And Infestations, Incidence Rate: 1.8 Events/PY of MTX
  Infections And Infestations, Total Events: 2
[1]; ITT N = 15
  Blood And Lymphatic System Disorders, %: (6.7) %
  Chronic Sinusitis, %: (6.7) %
  Cough, %: (6.7) %
  Dental Caries, %: (6.7) %
  Diarrhoea, %: (6.7) %
  Dry Eye, %: (6.7) %
  Eye Disorders, %: (6.7) %
  Headache, %: (6.7) %
  Leukopenia, %: (6.7) %
  Nasopharyngitis, %: (6.7) %
  Nervous System Disorders, %: (6.7) %
  Neutropenia, %: (6.7) %
  Pruritus, %: (6.7) %
  Respiratory, Thoracic And Mediastinal Disorders, %: (6.7) %
  Skin And Subcutaneous Tissue Disorders, %: (6.7) %
[1]; ITT N = 15, PY of MTX = 1.1
  Abdominal Discomfort, Incidence Rate: 1.8 Events/PY of MTX
  Blood And Lymphatic System Disorders, Incidence Rate: 1.8 Events/PY of MTX
  Chronic Sinusitis, Incidence Rate: 0.9 Events/PY of MTX
  Cough, Incidence Rate: 0.9 Events/PY of MTX
  Dental Caries, Incidence Rate: 0.9 Events/PY of MTX
  Diarrhoea, Incidence Rate: 0.9 Events/PY of MTX
  Dry Eye, Incidence Rate: 0.9 Events/PY of MTX
  Eye Disorders, Incidence Rate: 0.9 Events/PY of MTX
  Gastrointestinal Disorders, Incidence Rate: 5.5 Events/PY of MTX
  Gout, Incidence Rate: 5.5 Events/PY of MTX
  Headache, Incidence Rate: 0.9 Events/PY of MTX
  Leukopenia, Incidence Rate: 0.9 Events/PY of MTX
  Metabolism And Nutrition Disorders, Incidence Rate: 5.5 Events/PY of MTX
  Nasopharyngitis, Incidence Rate: 0.9 Events/PY of MTX
  Nausea, Incidence Rate: 1.8 Events/PY of MTX
  Nervous System Disorders, Incidence Rate: 0.9 Events/PY of MTX
  Neutropenia, Incidence Rate: 0.9 Events/PY of MTX
  Pruritus, Incidence Rate: 0.9 Events/PY of MTX
  Respiratory, Thoracic And Mediastinal Disorders, Incidence Rate: 0.9 Events/PY of MTX
  Skin And Subcutaneous Tissue Disorders, Incidence Rate: 0.9 Events/PY of MTX
[1]; mITT N = 14
  Blood And Lymphatic System Disorders, %: (7.1) %
  Chronic Sinusitis, %: (7.1) %
  Cough, %: (7.1) %
  Dental Caries, %: (7.1) %
  Diarrhoea, %: (7.1) %
  Dry Eye, %: (7.1) %
  Eye Disorders, %: (7.1) %
  Headache, %: (7.1) %
  Infections And Infestations, %: (14.3) %
  Infections And Infestations, Total Events: 2
  Leukopenia, %: (7.1) %
  Nasopharyngitis, %: (7.1) %
  Nervous System Disorders, %: (7.1) %
  Neutropenia, %: (7.1) %
  Pruritus, %: (7.1) %
  Respiratory, Thoracic And Mediastinal Disorders, %: (7.1) %
  Skin And Subcutaneous Tissue Disorders, %: (7.1) %
[1]; mITT N = 14, PY of MTX = 1.0
  Abdominal Discomfort, Incidence Rate: 2.0 Events/PY of MTX
  Any TEAEs, Incidence Rate: 20.0 Events/PY of MTX
  Blood And Lymphatic System Disorders, Incidence Rate: 2.0 Events/PY of MTX
  Chronic Sinusitis, Incidence Rate: 1.0 Events/PY of MTX
  Cough, Incidence Rate: 1.0 Events/PY of MTX
  Dental Caries, Incidence Rate: 1.0 Events/PY of MTX
  Diarrhoea, Incidence Rate: 1.0 Events/PY of MTX
  Dry Eye, Incidence Rate: 1.0 Events/PY of MTX
  Eye Disorders, Incidence Rate: 1.0 Events/PY of MTX
  Gastrointestinal Disorders, Incidence Rate: 6.0 Events/PY of MTX
  Gout, Incidence Rate: 6.0 Events/PY of MTX
  Headache, Incidence Rate: 1.0 Events/PY of MTX
  Infections And Infestations, Incidence Rate: 2.0 Events/PY of MTX
  Leukopenia, Incidence Rate: 1.0 Events/PY of MTX
  Metabolism And Nutrition Disorders, Incidence Rate: 6.0 Events/PY of MTX
  Nasopharyngitis, Incidence Rate: 1.0 Events/PY of MTX
  Nausea, Incidence Rate: 2.0 Events/PY of MTX
  Nervous System Disorders, Incidence Rate: 1.0 Events/PY of MTX
  Neutropenia, Incidence Rate: 1.0 Events/PY of MTX
  Pruritus, Incidence Rate: 1.0 Events/PY of MTX
  Respiratory, Thoracic And Mediastinal Disorders, Incidence Rate: 1.0 Events/PY of MTX
  Skin And Subcutaneous Tissue Disorders, Incidence Rate: 1.0 Events/PY of MTX

B1: pegloticase (protein)
chain: TYKKNDEVEFVRTGYGKDMIKVLHIQRDGKYHSIKEVATTVQLTLSSKKDYLHGDNSDVIPTDTIKNTVNVLAKFKGIKSIETFAVTICEHFLSSFKHVIRAQVYVEEVPWKRFEKNGVKHVHAFIYTPTGTHFCEVEQIRNGPPVIHSGIKDLKVLKTTQSGFEGFIKDQFTTLPEVKDRCFATQVYCKWRYHQGRDVDFEATWDTVRSIVLQKFAGPYDKGEYSPSVQKTLYDIQVLTLGQVPEIEDMEISLPNIHYLNIDMSKMGLINKEEVLLPLDNPYGKITGTVKRKLSSRL
modifications: monomethoxy PEG conjugated; Krystexxa Sequence
notes: covalent conjugate of uricase produced by a genetically modified strain of Escherichia coli and monomethoxypoly (ethylene glycol)
Plasma urate
  plasma urate concentration (pUAc) after dosing, mean±SD: 1.0±0.5 mg/dL
